# Test system: moderate-to-severe chronic spontaneous urticaria (CSU)
# Experiment: Phase 2 CSU study: itch severity score over 7 days (ISS7)
# Assay type: in vivo, human
# Settings: for Change from Baseline in ISS7 at Week 12, LS Mean Diff vs. placebo / Change from Baseline in ISS7 at Week 12, Mean / Change from Baseline in ISS7 at Week 12, LS Mean: Omalizumab-naïve population; for ISS7 change from baseline at Week 12, LS Mean / ISS7 change from baseline at Week 12, LS Mean Diff vs. placebo: ANCOVA
# Description: The study comprises a 12 week, randomized, double-blind, placebo-controlled, multi-center, dose-ranging efficacy and safety phase, followed by a 40 week open label extension (OLE) phase (see FIG. 1). The study consists of three phases and an optional OLE phase. […] Clinically, CSU is characterized by the spontaneous and recurrent appearance of pruritic hives. The proposed primary endpoints were the UAS7 at Week 12 in EU and EU reference countries and the ISS7 in the US. Regardless of where a participant was from, all assessments were the same. The UAS7 score is a composite score containing both the HSS7 and the ISS7. This allowed a global assessment of the two key components of urticaria: hives and itch. […] The UAS is a validated PRO measure. […] The daily UAS scores range from 0 to 6 point/day. […] Patients were to complete the UAS using the e-diary. […] The following secondary endpoints were to be analyzed using the same approach as for the primary endpoint: • Change from baseline in UAS7 at Week 4 • Change from baseline in UAS7 at Week 12 (for US and US reference countries) • Change from baseline in ISS7 at Week 12 (except US and US reference countries) • Change from baseline in HSS7 at Week 12
# [1] = 400 mg BID, Race All the Others
# [2] = 400 mg BID, Region Eastern Europe
# [3] = 400 mg BID, Region Latin America
# [4] = 400 mg BID, Region Western Countries
# [5] = 400 mg BID, omalizumab-naïve population
# [6] = 400 mg BID, omalizumab-naïve population with outlier removed
# [7] = 400 mg QPM, Age group (years) <44 (Median)
# [8] = 400 mg QPM, Age group (years) <65
# [9] = 400 mg QPM, Age group (years) ≥44 (Median)
# [10] = 400 mg QPM, Baseline BHRA BHRA+
# [11] = 400 mg QPM, Baseline BHRA BHRA−
# [12] = 400 mg QPM, Baseline Eosinophils (10^9/L) <0.165 (Median)
# [13] = 400 mg QPM, Baseline Eosinophils (10^9/L) <0.3
# [14] = 400 mg QPM, Baseline Eosinophils (10^9/L) ≥0.165 (Median)
# [15] = 400 mg QPM, Baseline Eosinophils (10^9/L) ≥0.3
# [16] = 400 mg QPM, Baseline H1-antihistamines dose 1-fold
# [17] = 400 mg QPM, Baseline H1-antihistamines dose 2 to 4-fold standard dose
# [18] = 400 mg QPM, Baseline ISS7 score <13
# [19] = 400 mg QPM, Baseline ISS7 score ≥13
# [20] = 400 mg QPM, Baseline Total IgE (IU/mL) <100
# [21] = 400 mg QPM, Baseline Total IgE (IU/mL) <300
# [22] = 400 mg QPM, Baseline Total IgE (IU/mL) ≥100
# [23] = 400 mg QPM, Baseline Total IgE (IU/mL) ≥300
# [24] = 400 mg QPM, Baseline UAS7 score <28
# [25] = 400 mg QPM, Baseline UAS7 score ≥28
# [26] = 400 mg QPM, Duration of disease (years) 2-10
structure (smiles),measurement,setting,value
"CC(C)(C=C(C#N)C(=O)N1CCC[C@@H](n2nc(-c3ccc(Oc4ccccc4)cc3F)c3c(N)ncnc32)C1)N1CCN(C2COC2)CC1 [rilzabrutinib, (R)-2-[3-[4-amino-3-(2-fluoro-4-phenoxy-phenyl)pyrazolo[3,4-d]pyrimidin-1-yl]piperidine-1-carbonyl]-4-methyl-4-[4-(oxetan-3-yl)piperazin-1-yl]pent-2-enenitrile]","Change from Baseline in ISS7 at Week 12, LS Mean Diff vs. placebo",[1],−3.52
same,"Change from Baseline in ISS7 at Week 12, Mean",[1],−6.86
same,"Change from Baseline in ISS7 at Week 12, LS Mean","400 mg BID, Race White",−7.91
same,"Change from Baseline in ISS7 at Week 12, LS Mean Diff vs. placebo","400 mg BID, Race White",−1.90
same,"Change from Baseline in ISS7 at Week 12, Mean","400 mg BID, Race White",−7.64
same,"Change from Baseline in ISS7 at Week 12, LS Mean","400 mg BID, Region Asia",−6.99
same,"Change from Baseline in ISS7 at Week 12, LS Mean Diff vs. placebo","400 mg BID, Region Asia",−3.54
same,"Change from Baseline in ISS7 at Week 12, Mean","400 mg BID, Region Asia",−6.86
same,"Change from Baseline in ISS7 at Week 12, LS Mean",[2],−4.38
same,"Change from Baseline in ISS7 at Week 12, LS Mean Diff vs. placebo",[2],8.28
same,"Change from Baseline in ISS7 at Week 12, Mean",[2],−10.81
same,"Change from Baseline in ISS7 at Week 12, LS Mean",[3],−4.75
same,"Change from Baseline in ISS7 at Week 12, LS Mean Diff vs. placebo",[3],1.84
same,"Change from Baseline in ISS7 at Week 12, Mean",[3],−4.42
same,"Change from Baseline in ISS7 at Week 12, LS Mean",[4],−10.12
same,"Change from Baseline in ISS7 at Week 12, LS Mean Diff vs. placebo",[4],−5.57
same,"Change from Baseline in ISS7 at Week 12, Mean",[4],9.95
same,"ISS7 at Week 12, Mean",[5],8.09
same,"ISS7 at Week 12, Median",[5],7.00
same,"ISS7 change from baseline at Week 12, Mean",[5],−7.40
same,"ISS7 change from baseline at Week 12, Median",[5],−7.00
same,LS mean reduction in ISS7 (see Table 30),[5],−5.06
same,"ISS7 at Week 12, Mean",[6],8.09
same,"ISS7 at Week 12, Median",[6],7.00
same,"ISS7 change from baseline at Week 12, Mean",[6],−7.40
same,"ISS7 change from baseline at Week 12, Median",[6],−7.00
same,"ISS7 change from baseline at Week 12, LS Mean",[6],−7.76 points
same,"ISS7 change from baseline at Week 12, LS Mean Diff vs. placebo",[6],−2.05
same,"ISS7 change from baseline at Week 12, LS Mean",[5],−7.73 points
same,"ISS7 change from baseline at Week 12, LS Mean Diff vs. placebo",[5],−1.96
same,"Change from Baseline in ISS7 at Week 12, LS Mean",[7],−4.68
same,"Change from Baseline in ISS7 at Week 12, LS Mean Diff vs. placebo",[7],−0.21
same,"Change from Baseline in ISS7 at Week 12, Mean",[7],−5.45
same,"Change from Baseline in ISS7 at Week 12, LS Mean",[8],−4.78
same,"Change from Baseline in ISS7 at Week 12, LS Mean Diff vs. placebo",[8],0.88
same,"Change from Baseline in ISS7 at Week 12, Mean",[8],−5.68
same,"Change from Baseline in ISS7 at Week 12, LS Mean",[9],−4.77
same,"Change from Baseline in ISS7 at Week 12, LS Mean Diff vs. placebo",[9],1.83
same,"Change from Baseline in ISS7 at Week 12, Mean",[9],−5.95
same,"Change from Baseline in ISS7 at Week 12, Mean","400 mg QPM, Age group (years) ≥65",−5.83
same,"Change from Baseline in ISS7 at Week 12, LS Mean",[10],−8.50
same,"Change from Baseline in ISS7 at Week 12, LS Mean Diff vs. placebo",[10],−3.12
same,"Change from Baseline in ISS7 at Week 12, Mean",[10],−9.13
same,"Change from Baseline in ISS7 at Week 12, LS Mean",[11],−4.66
same,"Change from Baseline in ISS7 at Week 12, Mean",[11],−5.45
same,"Change from Baseline in ISS7 at Week 12, LS Mean Diff vs. placebo","400 mg QPM, Baseline BMI (kg/m^2) ≥30",0.17
same,"Change from Baseline in ISS7 at Week 12, LS Mean",[12],−4.00
same,"Change from Baseline in ISS7 at Week 12, LS Mean Diff vs. placebo",[12],2.51
same,"Change from Baseline in ISS7 at Week 12, Mean",[12],−4.93
same,"Change from Baseline in ISS7 at Week 12, LS Mean",[13],−4.64
same,"Change from Baseline in ISS7 at Week 12, LS Mean Diff vs. placebo",[13],0.83
same,"Change from Baseline in ISS7 at Week 12, Mean",[13],−5.66
same,"Change from Baseline in ISS7 at Week 12, LS Mean",[14],−5.54
same,"Change from Baseline in ISS7 at Week 12, LS Mean Diff vs. placebo",[14],−1.46
same,"Change from Baseline in ISS7 at Week 12, Mean",[14],6.55
same,"Change from Baseline in ISS7 at Week 12, LS Mean",[15],−5.53
same,"Change from Baseline in ISS7 at Week 12, LS Mean Diff vs. placebo",[15],−0.68
same,"Change from Baseline in ISS7 at Week 12, Mean",[15],−5.81
same,"Change from Baseline in ISS7 at Week 12, LS Mean",[16],−4.24
same,"Change from Baseline in ISS7 at Week 12, LS Mean Diff vs. placebo",[16],2.59
same,"Change from Baseline in ISS7 at Week 12, Mean",[16],−5.09
same,"Change from Baseline in ISS7 at Week 12, LS Mean",[17],−5.28
same,"Change from Baseline in ISS7 at Week 12, LS Mean Diff vs. placebo",[17],−1.80
same,"Change from Baseline in ISS7 at Week 12, Mean",[17],−6.37
same,"Change from Baseline in ISS7 at Week 12, LS Mean",[18],−1.87
same,"Change from Baseline in ISS7 at Week 12, LS Mean Diff vs. placebo",[18],0.85
same,"Change from Baseline in ISS7 at Week 12, Mean",[18],−4.42
same,"Change from Baseline in ISS7 at Week 12, LS Mean",[19],−5.38
same,"Change from Baseline in ISS7 at Week 12, LS Mean Diff vs. placebo",[19],0.36
same,"Change from Baseline in ISS7 at Week 12, Mean",[19],−5.78
same,"Change from Baseline in ISS7 at Week 12, LS Mean",[20],−3.37
same,"Change from Baseline in ISS7 at Week 12, LS Mean Diff vs. placebo",[20],0.87
same,"Change from Baseline in ISS7 at Week 12, Mean",[20],−4.48
same,"Change from Baseline in ISS7 at Week 12, LS Mean",[21],−4.46
same,"Change from Baseline in ISS7 at Week 12, LS Mean Diff vs. placebo",[21],0.05
same,"Change from Baseline in ISS7 at Week 12, Mean",[21],−5.41
same,"Change from Baseline in ISS7 at Week 12, LS Mean",[22],−5.51
same,"Change from Baseline in ISS7 at Week 12, LS Mean Diff vs. placebo",[22],0.52
same,"Change from Baseline in ISS7 at Week 12, Mean",[22],−6.28
same,"Change from Baseline in ISS7 at Week 12, LS Mean",[23],−4.90
same,"Change from Baseline in ISS7 at Week 12, LS Mean Diff vs. placebo",[23],1.64
same,"Change from Baseline in ISS7 at Week 12, Mean",[23],−6.11
same,"Change from Baseline in ISS7 at Week 12, LS Mean",[24],−3.33
same,"Change from Baseline in ISS7 at Week 12, LS Mean Diff vs. placebo",[24],−0.15
same,"Change from Baseline in ISS7 at Week 12, Mean",[24],−5.32
same,"Change from Baseline in ISS7 at Week 12, LS Mean",[25],−5.59
same,"Change from Baseline in ISS7 at Week 12, LS Mean Diff vs. placebo",[25],1.01
same,"Change from Baseline in ISS7 at Week 12, Mean",[25],−5.78
same,"Change from Baseline in ISS7 at Week 12, LS Mean",[26],−5.24
same,"Change from Baseline in ISS7 at Week 12, LS Mean Diff vs. placebo",[26],1.79
same,"Change from Baseline in ISS7 at Week 12, Mean",[26],−6.43

# Reference: patent US20260256792A1, “TREATMENT OF CHRONIC SPONTANEOUS URTICARIA BY ADMINISTERING (R)-2-[3-[4-AMINO-3-(2-FLUORO-4-PHENOXY-PHENYL)PYRAZOLO[3,4-D]PYRIMIDIN-1-YL]PIPERIDINE-1-CARBONYL]-4-METHYL-4-[4-(OXETAN-3-YL)PIPERAZIN-1-YL]PENT-2-ENENITRILE” (priority 2023, published 2026)
